Laboratory results as given in PubChem BioAssay (NCI).
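Dose response: 5 concentrations. Exposure: 48 h. Format: 96-well plates. Endpoint: linear interpolation; highest concentration if not reached. At the GI50, growth is halved. TGI: concentration producing complete growth inhibition.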

What was measured:
Experiment in all cases: NCI-60 cell line screen, 48 h
OVCAR-8 ovarian = test system: OVCAR-8 ovarian
HCC-2998 colon = test system: HCC-2998 colon
SF-539 CNS = test system: SF-539 CNS
SK-MEL-5 melanoma = test system: SK-MEL-5 melanoma
SNB-19 CNS = test system: SNB-19 CNS
MDA-MB-231 breast = test system: MDA-MB-231 breast
ACHN renal = test system: ACHN renal
NCI/ADR-RES ovarian = test system: NCI/ADR-RES ovarian
OVCAR-4 ovarian = test system: OVCAR-4 ovarian
MDA-MB-435 = test system: MDA-MB-435

Row | SMILES | GI50 (OVCAR-8 ovarian) [µM] | TGI (OVCAR-8 ovarian) [µM] | GI50 (HCC-2998 colon) [µM] | TGI (HCC-2998 colon) [µM] | GI50 (SF-539 CNS) [µM] | TGI (SF-539 CNS) [µM] | GI50 (SK-MEL-5 melanoma) [µM] | TGI (SK-MEL-5 melanoma) [µM] | GI50 (SNB-19 CNS) [µM] | TGI (SNB-19 CNS) [µM] | GI50 (MDA-MB-231 breast) [µM] | TGI (MDA-MB-231 breast) [µM] | GI50 (ACHN renal) [µM] | TGI (ACHN renal) [µM] | GI50 (NCI/ADR-RES ovarian) [µM] | TGI (NCI/ADR-RES ovarian) [µM] | GI50 (OVCAR-4 ovarian) [µM] | TGI (OVCAR-4 ovarian) [µM] | GI50 (MDA-MB-435) [µM] | TGI (MDA-MB-435) [µM]
1 | O=c1c2ccccc2oc2ccc(OCCCCCCN3CCCCCC3)cc12 | 4.66 | 17.9 | 2.97 | 11.6 | 1.76 | 3.4 | 1.68 | 3.04 | 4.12 | 14.4 | 4.19 | 13 | 3.68 | 13.2 | 3.73 | 24.6 | 3.03 | 16.7 | 2.53 | 8.75
2 | Oc1[nH]c2cc(Cl)ccc2c1/C=c1/ccc2c(c1)N=C(c1cc(F)cc(F)c1)N=2 | 2.92 | 10.3 | 4.86 | 17.2 | 2.04 | 5.96 | 1.68 | 7.59 | 6.22 | 26.2 | 2.78 | 12.3 | 4.99 | 19.9 | 2.03 | 6.75 | 4.25 | 16.1 | 0.57 | 2.38
3 | CC(=O)Oc1ccc(/C=N/NC(N)=S)nc1 | 2.85 | > 100 | 8.96 | > 100 | 2.36 | > 100 | 3.38 | 23.4 | 8.77 | > 100 | 11.2 | > 100 | 3.49 | > 100 | 3.48 | > 100 | 6.03 | > 100 | 5.14 | > 100
4 | CC(=O)N(Cc1ccccc1)c1ccccc1I(=O)=O | 48.3 | > 100 | 99.3 | > 100 | > 100 | > 100 | 33.6 | > 100 | 82.2 | > 100 | 50.4 | > 100 | 36 | > 100 | 37.8 | > 100 | 65.4 | > 100 | 49.9 | > 100
5 | COC(=O)c1c(C)nc(C)c(NO)c1-c1ccccc1C(F)(F)F | – | 33.2 | – | > 100 | – | 38.6 | – | > 100 | – | > 100 | – | 27.9 | – | 71.6 | – | 38.4 | – | 39.2 | – | 37.6
6 | S=C(NCc1ccccc1)N/N=C/c1ccccn1 | – | > 76.2 | – | > 68.5 | – | > 100 | – | > 93.6 | – | > 100 | – | > 100 | – | > 56.1 | – | 8.52 | – | > 100 | – | > 100
7 | Nc1ccc2c(c1)c(N)nn2C(=O)Nc1ccc(Cc2ccccc2)cc1 | 20.2 | > 100 | 4.17 | 14.8 | 8.7 | 22.1 | 6.52 | 19.8 | 13.9 | 27.3 | 7.74 | 22.7 | 3.37 | 13.7 | 17.4 | 75.1 | 8.29 | 24.1 | 7.36 | 23.8
8 | COc1cnc2cc(C(=O)O)c3ccccc3c2c1 | – | > 100 | – | > 100 | – | > 100 | – | > 100 | – | > 100 | – | > 100 | – | > 100 | – | > 100 | – | > 100 | – | > 100
9 | Cc1nc(N)nc2ccccc12 | – | > 100 | > 100 | > 100 | – | > 100 | – | > 100 | – | > 100 | – | > 100 | – | > 100 | – | > 100 | – | > 100 | – | > 100
10 | CCOC(=O)C(=O)C(=O)NN(C)C1=NCCN1 | – | > 100 | – | > 100 | – | > 100 | – | > 100 | – | > 100 | – | > 100 | – | > 100 | – | > 100 | – | > 100 | – | > 100
11 | COC(=O)[C@@H]1CN(C(=O)c2ccccc2)C(=O)N1C(=O)OCc1ccccc1 | – | > 100 | – | > 100 | – | > 100 | – | > 100 | – | > 100 | – | > 100 | – | > 100 | – | > 100 | – | > 100 | – | > 100
12 | O=C(NCCCCCCCNC(=O)OCc1ccc2c(Cl)cc(Cl)c(O)c2n1)OCc1ccc2c(Cl)cc(Cl)c(O)c2n1 | 0.395 | 1.83 | 1.65 | 3.14 | 0.414 | 1.48 | 0.966 | 2.26 | 1.59 | 3.06 | 1.13 | 2.45 | 0.26 | 0.698 | 0.338 | 3.59 | 0.465 | 1.62 | 0.297 | 0.931
13 | CCOc1cc(-c2ccc[nH]2)[nH]c1/C=C1\N=C(C)C(C(=O)OC)=C1C | 0.0329 | 1.4 | 0.0442 | 1.34 | 0.059 | 0.968 | < 0.0133 | 0.0293 | 0.239 | 2.91 | 0.0171 | 0.279 | 0.0344 | 1.16 | 0.0432 | 1.47 | 0.0449 | 1.45 | 0.0325 | 1.05
14 | CC1COCC(C)N1C1=C(Cl)C(=O)c2ccccc2C1=O (stereo unspecified) | 3.73 | 13.6 | 17.2 | 31.1 | 14.3 | 28.1 | 6.83 | 19.9 | 14.9 | 28.1 | 2.46 | 11 | 1.66 | 3.06 | 3.36 | 14.1 | 1.61 | 3.03 | 1.35 | 2.73
15 | CC1OC2OC3C(OCC(O)C3O)OC(=O)[C@]34CCC(C)(C)CC3C3=CCC5[C@@]6(C)C[C@H](O)[C@H](OC7OC(CO)C(O)C(O)C7OC7OCC(OC(=O)CC(C)(O)CC(=O)OC1C(OC1OC(CO)C(O)C(O)C1O)C2O)C(O)C7O)[C@@](C)(CO)C6CC[C@@]5(C)[C@]3(C)CC4 (stereo partly specified) | – | 23.6 | – | 8.52 | – | 26.8 | – | 28.8 | – | 22.9 | – | 21.1 | – | 17.9 | – | 19.1 | – | 17.1 | – | 11.4
